Reference: the NIST ThermoML archive (doi:10.1021/je800271e)

Assays:
[1] = for viscosity: Liquid
[2] = xn = mol fraction of the nth substance listed; conditions: for viscosity: Liquid

OCCO [1,2-ethanediol]
[1]
Conditions	surface tension liquid-gas [mN/m]	viscosity [mPa·s]
308.15 K	50.11	9.212
313.15 K	48.73	7.961
318.15 K	47.25	6.293
323.15 K	46.41	5.447

OCCO [1,2-ethanediol] + O
[2]
Conditions	surface tension liquid-gas, 308.15 K [mN/m]	surface tension liquid-gas, 313.15 K [mN/m]	surface tension liquid-gas, 318.15 K [mN/m]	surface tension liquid-gas, 323.15 K [mN/m]	viscosity, 308.15 K [mPa·s]	viscosity, 313.15 K [mPa·s]	viscosity, 318.15 K [mPa·s]	viscosity, 323.15 K [mPa·s]
x1 = 0.0145	69.73	66.55	65.92	63.24	0.7543	0.7037	0.6336	0.5878
x1 = 0.0312	67.83	65.58	63.92	60.58	0.8381	0.764	0.6785	0.6321
x1 = 0.0484	66.13	64.09	62.24	59.62	0.9241	0.8372	0.7424	0.6876
x1 = 0.0686	64.57	62.51	60.57	57.96	1.021	0.9256	0.7995	0.7433
x1 = 0.0883	63.27	61.32	59.21	56.77	1.133	1.017	0.8755	0.8133
x1 = 0.1107	62.14	60.32	58.41	55.75	1.266	1.127	0.9589	0.8853
x1 = 0.1621	60.02	58.1	56.25	54.15	1.574	1.405	1.184	1.082
x1 = 0.2247	57.51	55.92	54.36	52.15	2.036	1.772	1.48	1.339
x1 = 0.3032	56.03	54.45	52.66	50.52	2.662	2.298	1.888	1.679
x1 = 0.4035	54.03	52.41	50.65	49.12	3.512	3.017	2.468	2.179
x1 = 0.5366	52.47	50.7	49.34	47.88	4.7	4.054	3.283	2.874
x1 = 1	50.11	48.73	47.25	46.41	9.212	7.961	6.293	5.447

O [water] + OCCO
[2], x2 = 0
Conditions	surface tension liquid-gas [mN/m]	viscosity [mPa·s]
308.15 K	71.02	0.721
313.15 K	69.69	0.6532
318.15 K	67.68	0.59
323.15 K	66.12	0.55
